The assay has as its system Rattus norvegicus. Briefly: Antihyperglycemic activity in normoglycemic male albino Sprague-Dawley rat assessed as improvement in sucrose tolerance at 100 mg/kg, po by Oral sucrose tolerance test. Type of assay: functional.

Turning to `c1ccc(C2=NNC(c3ccc(OCc4csc(-c5ccccc5)n4)cc3)C2)cc1` (stereo not drawn), the Activity was found to be 7.42%.
With `COc1ccc(C2=NNC(c3ccc(OCc4csc(-c5ccccc5)n4)cc3)C2)cc1` (stereo not drawn) the figure was 0.85%.
With `Fc1ccc(C2=NNC(c3ccc(OCc4csc(-c5ccccc5)n4)cc3)C2)cc1` (stereo not drawn) the figure was 10.4%; with `O=[N+]([O-])c1ccc(C2=NNC(c3ccc(OCc4csc(-c5ccccc5)n4)cc3)C2)cc1` (stereo not drawn), 2.47%; with `c1ccc(C2=NOC(c3ccc(OCc4csc(-c5ccccc5)n4)cc3)C2)cc1` (stereo not drawn), 2.73%.
With `COc1ccc(C2=NOC(c3ccc(OCc4csc(-c5ccccc5)n4)cc3)C2)cc1` (stereo not drawn) the figure was 8.37%; with `Fc1ccc(C2=NOC(c3ccc(OCc4csc(-c5ccccc5)n4)cc3)C2)cc1` (stereo not drawn), 4.88%; with `O=[N+]([O-])c1ccc(C2=NOC(c3ccc(OCc4csc(-c5ccccc5)n4)cc3)C2)cc1` (stereo not drawn), 0.91%.
In the case of `S=C1NC(c2ccccc2)=CC(c2ccc(OCc3csc(-c4ccccc4)n3)cc2)N1` (stereo not drawn), the Activity is listed as 0.07%.
With `COc1ccc(C2=CC(c3ccc(OCc4csc(-c5ccccc5)n4)cc3)NC(=S)N2)cc1` (stereo not drawn) the figure was 1.05%.
With `Fc1ccc(C2=CC(c3ccc(OCc4csc(-c5ccccc5)n4)cc3)NC(=S)N2)cc1` (stereo not drawn) the figure was 8.22%; with `O=[N+]([O-])c1ccc(C2=CC(c3ccc(OCc4csc(-c5ccccc5)n4)cc3)NC(=S)N2)cc1` (stereo not drawn), 7.04%.
With `CN(C)C(=N)NC(=N)N` [METFORMIN] the figure was 14.1%.

Values taken from ChEMBL document CHEMBL3425487, “Synthesis of new thiazolylmethoxyphenyl pyrimidines and antihyperglycemic evaluation of the pyrimidines, analogues isoxazolines and pyrazolines” (2015).
